In brackets after ≈: the same amount, converted by molar mass. Where a SMILES comes first, the peptide text is derived from it. Where no end group is shown, it is not given here.
Tests used:
[1] = test system: sheep red blood cells; conditions: sheep red blood cells in PBS, 37°C, 1 h, OD576, relative to melittin, mean ± SD, three repeats; for Hemolytic rate, 50 μg/mL: 50 μg/mL peptide; for Hemolytic rate, 100 μg/mL: 100 μg/mL peptide; for Hemolytic rate, 150 μg/mL: 150 μg/mL peptide; for Hemolytic rate, 300 μg/mL: 300 μg/mL peptide;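 for all read-outs here: hemolysis expressed in % from supernatant absorbance, with PBS-treated cells as 0% baseline and melittin as 100%, peptide mixed 1:1 with an 8% v/v erythrocyte suspension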
[2] = test system: Escherichia coli ATCC25922; conditions: Table 1; broth microdilution CLSI M100-S25, MH broth, 37°C, 18 h, three independent repeats
[3] = test system: MAC-T cells; conditions: peptide 150 μg/mL, 24 h, WST-1, mean ± SD, three repeats
[4] = test system: RAW264.7 cells; conditions: peptide 150 μg/mL, 24 h, WST-1, mean ± SD, three repeats
[5] = test system: various microorganisms; assay: MIC/MBC, summary statements over several strains; type: cell-based; conditions: for MIC against S. aureus ATCC29213 and E. coli ATCC25922 (both strains together): summary of Table 1
[6] = test system: Staphylococcus aureus ATCC29213; assay: MIC/MBC, broth microdilution; type: cell-based; conditions: Table 1; broth microdilution CLSI M100-S25, MH broth, 37°C, 18 h, three independent repeats
[7] = test system: methicillin-resistant S. aureus ATCC33591; assay: Mouse skin infection model; type: in vivo; conditions: 24 h
Description: (§1) Female ICR mice (∼18 g, four weeks old) bought from Yangzhou University were used in this study. They were reared with ad libitum access to drinking water and antibiotic-free feed. The animal experiments were conducted in strict accordance with the Laboratory Animal Welfare and Animal Experimental Ethical Certificate, as issued by Committee on Animal Welfare and Experimental Ethics in Jiangsu Academy of Agricultural Sciences (approval no. JAAS20200516 and JAAS20211208).
(§2) The mouse skin infection model and bacteremia model were established to evaluate the treatment efficacy of RW-BP100-4D on local and system infections, respectively. In each model, ICR female mice were equally allocated into different treatment groups and each group contained six mice. The mouse skin infection model and bacteremia model were constructed according to previously described methods ([Natalia et al., 2019]; [Song et al., 2020]). The mice were challenged with methicillin-resistant S. aureus ATCC33591 (mecA+, MRSA) via spreading on skin lesion (5 × 10^5 CFU/mL, 0.1 mL) or intraperitoneal injection (3.0 × 10^8CFU/mL, 0.5 mL). […] S. aureus isolates were counted by using the Chromagar selective agar (Chromagar, France) supplemented with 8 μg/mL oxacillin.

[8] = test system: S. enterica ATCC13076; assay: Intracellular antibacterial activity in MAC-T cells; type: cell-based, Salmonella enterica; conditions: 2 h, infected MAC-T cells
Description: (§3) The intracellular antibacterial activity of RW-BP100-4D against S. aureus ATCC29213 and S. enterica ATCC13076 were determined as described previously ([John et al., 2019]). MAC-T cells were cultured in a 12-well plate and then infected with S. aureus ATCC29213 or S. enterica ATCC13076 (∼10^5CFU, MOI = 10) for 1 h. The spare bacteria were eliminated by treating with kanamycin (100 μg/mL) for 1 h. After that, kanamycin was removed by washing with PBS for 4 times. Then RW-BP100-4D or RW-BP100 were added to a final concentration of 50 μg/mL, respectively and incubated for 2 h. Meanwhile, kanamycin (50 μg/mL) and PBS were set as the antibiotic treatment group and treatment control group, respectively. Finally, MAC-T cells were treated with 0.1% TritonX-100. The lysates were serially diluted and spread on selective agar plates to enumerate the intracellular live bacteria. Each test was performed with three independent repeats.

[9] = test system: S. aureus ATCC29213; assay: as above; type: cell-based, Staphylococcus aureus; conditions: 2 h, infected MAC-T cells
Description: as §3

[10] = test system: Escherichia coli and Psudomnas aeruginosa isolates; design: method as in Ferre et al., 2009; conditions: ref Ferre et al., 2009; cited from earlier work
[11] = test system: S. aureus ATCC29213 mature biofilm; assay: Mature biofilm dispersal assay (crystal violet); type: cell-based, Staphylococcus aureus; conditions: peptide 200 μg/mL, 30 min, 37°C on 24 h biofilm, crystal violet OD590
Description: Each test was performed with three independent repeats.

[12] = test system: HeLa; conditions: peptide concentration 11 μM; ref Torcato et al., 2013; cited from earlier work
[13] = test system: human erythrocytes; conditions: peptide 4.9 μM; ref Torcato et al., 2013; cited from earlier work
[14] = test system: methicillin-resistant S. aureus ATCC33591; assay: Mouse bacteremia model; type: in vivo; conditions: 25 mg/kg intraperitoneal 2 h after infection; 24 h
Description: as §1, §2

Row | Compound | Hemolytic rate, 50 μg/mL [1] [%] | Hemolytic rate, 100 μg/mL [1] [%] | Hemolytic rate, 150 μg/mL [1] [%] | Hemolytic rate, 300 μg/mL [1] [%] | MIC Escherichia coli ATCC25922 [2] [µg/mL] | Cell survival rate, MAC-T [3] [%] | Cell survival rate, RAW264.7 [4] [%] | MIC against S. aureus ATCC29213 and E. coli ATCC25922 (both strains together) [5] [µg/mL] | MIC Staphylococcus aureus ATCC29213 [6] [µg/mL] | also measured
1 | CC[C@H](C)[C@H](NC(=O)[C@H](CCCNC(=N)N)NC(=O)[C@H](CCCNC(=N)N)NC(=O)[C@H](Cc1ccccc1)NC(=O)[C@H](CC(C)C)NC(=O)[C@H](CCCNC(=N)N)NC(=O)[C@@H](N)CCCNC(=N)N)C(=O)N[C@H](CC(C)C)C(=O)N[C@@H](CCCNC(=N)N)C(=O)N[C@@H](Cc1c[nH]c2ccccc12)C(=O)N[C@@H](CC(C)C)C(N)=O [RW-BP100-8D] (HELM PEPTIDE1{R.R.L.F.R.R.I.[dL].R.W.L.[am]}$$$$V2.0) | 0.91 ± 0.38 | 1.38 ± 0.58 | 26.19 ± 0.10 | 50.11 ± 3.17 | 12 (≈ 7.58 µM) | 54.78 ± 2.65 | 20.30 ± 3.26 | 3 to 12 | 12 (≈ 7.58 µM) | –
2 | CC[C@H](C)[C@H](NC(=O)[C@H](CCCNC(=N)N)NC(=O)[C@H](CCCNC(=N)N)NC(=O)[C@H](Cc1ccccc1)NC(=O)[C@H](CC(C)C)NC(=O)[C@H](CCCNC(=N)N)NC(=O)[C@@H](N)CCCNC(=N)N)C(=O)N[C@@H](CC(C)C)C(=O)N[C@@H](CCCNC(=N)N)C(=O)N[C@@H](Cc1c[nH]c2ccccc12)C(=O)N[C@H](CC(C)C)C(N)=O [RW-BP100-11D] (HELM PEPTIDE1{R.R.L.F.R.R.I.L.R.W.[dL].[am]}$$$$V2.0) | 0.65 ± 0.60 | 1.42 ± 0.15 | 17.36 ± 1.92 | 46.97 ± 6.45 | >50 | 77.81 ± 5.28 | 83.27 ± 4.56 | > 50 | >50 | –
3 | CC[C@@H](C)[C@@H](NC(=O)[C@@H](CCCNC(=N)N)NC(=O)[C@@H](CCCNC(=N)N)NC(=O)[C@@H](Cc1ccccc1)NC(=O)[C@@H](CC(C)C)NC(=O)[C@@H](CCCNC(=N)N)NC(=O)[C@H](N)CCCNC(=N)N)C(=O)N[C@H](CC(C)C)C(=O)N[C@H](CCCNC(=N)N)C(=O)N[C@H](Cc1c[nH]c2ccccc12)C(=O)N[C@H](CC(C)C)C(N)=O [RW-BP100-All-D] (HELM PEPTIDE1{[dR].[dR].[dL].[dF].[dR].[dR].[dI].[dL].[dR].[dW].[dL].[am]}$$$$V2.0) | 1.94 ± 0.94 | 2.75 ± 0.23 | 30.39 ± 2.11 | 51.40 ± 1.94 | 6 (≈ 3.79 µM) | 14.23 ± 2.37 | 23.37 ± 1.58 | 3 to 12 | 6 (≈ 3.79 µM) | –
4 | CC1(C)S[C@@H]2[C@H](NC(=O)[C@H](N)c3ccccc3)C(=O)N2[C@H]1C(=O)O [ampicillin] | – | – | – | – | – | – | – | – | – | Bacteria load in infected mouse skin, antibiotic control ([7]; ampicillin 1 mg/mL, 100 μL on skin lesion): did not decrease the bacteria load
5 | NC[C@H]1O[C@H](O[C@H]2[C@H](O)[C@@H](O[C@H]3O[C@H](CO)[C@@H](O)[C@H](N)[C@H]3O)[C@H](N)C[C@@H]2N)[C@H](O)[C@@H](O)[C@@H]1O [kanamycin] | – | – | – | – | – | – | – | – | – | Intracellular CFU versus the untreated group, S. enterica ATCC13076 ([8]; kanamycin 50 μg/mL): no significant difference; Intracellular CFU versus the untreated group, S. aureus ATCC29213 ([9]; kanamycin 50 μg/mL): no significant difference
6 | KKLFKKILKYL-NH2 [BP100, short cationic AMP of 11 amino acids (…-NH2), hybrid of cecropin A and melittin] | – | – | – | – | – | – | – | – | – | MIC against Escherichia coli and Psudomnas aeruginosa isolates [10]: 2.5 to 5 µM
7 | RRLFRRILRWL-NH2 [RW-BP100] | – | – | – | – | – | – | – | – | – | Mature biofilm matrix lost compared to the PBS control [11]: 29.4%; Cell death rate of HeLa [12]: 73%; Elimination of intracellular S. enterica ATCC13076 ([8]; peptide 50 μg/mL, CFU count): 2.57 log; Elimination of intracellular S. aureus ATCC29213 ([9]; peptide 50 μg/mL, CFU count): 2.34 log; Hemolytic rate toward human erythrocytes [13]: 50%; Reduction of S. aureus ATCC33591 in infected mouse skin ([7]; peptide 50 μg (1 mg/mL, 50 μL) on skin lesion 2 h after infection, ICR female mice): 3.13 log; Bacterial loads in heart, liver and kidney at 25 mg/kg [14]: did not significantly reduce; MBC values relative to the corresponding MIC values ([5]; over the strains of Table 2): 4–8 fold

From PMC8822125, “RW-BP100-4D, a Promising Antimicrobial Candidate With Broad-Spectrum Bactericidal Activity” (Frontiers in Microbiology, 2022)
